Results from patent publication US20070172957A1, “Methods of identifying anti-inflammatory macrolides” (TAISHO PHARMACEUTICAL CO., LTD., priority 2004, published 2007).

Tested on: genes predictive for the anti-inflammatory macrolide effect
Experiment: Genes statistically predictive of Clari response: differentially expressed with Clari but not the inactive macrolides MAA or Josa (Appendix E)
Type: cell-based
Excerpt: In the case of the above-mentioned (i) related to arachidonic acid biosynthesis, specifically, methods of the embodiment involve assaying whether a test macrolide alters biosynthesis of arachidonic acid, alters the expression or activities of enzymes involved in the biosynthesis or activation of arachidonic acid (e.g., arachidonic acid CoA synthetase, delta-6 desaturase, fatty acid elongase, and delta-5 desaturase, AA-related genes in Tables 2 and 3), or alters the expression of genes identified as predictive for the anti-inflammatory macrolide effect (Appendix E). Assays in which arachidonic acid or gene expression or enzymatic activity is detected can be carried out after contacting a cell with a test macrolide. Any cell line that secretes prostaglandin or produces arachidonic acid can be used. Epithelial and macrophages lines (e.g., A549 or THP-1) are suitable for this purpose; other cell lines can be identified by carrying out assays such as those described in the specific Examples, below. Alternatively, screening assays can be carried out after adding a test macrolide to an in vitro cell system (e.g., a cellular extract or liver microsome preparation) or an in vitro enzyme assay system.

CC[C@H]1OC(=O)[C@H](C)[C@@H](O[C@H]2C[C@@](C)(OC)[C@@H](O)[C@H](C)O2)[C@H](C)[C@@H](O[C@@H]2O[C@H](C)C[C@H](N(C)C)[C@H]2O)[C@](C)(OC)C[C@@H](C)C(=O)[C@H](C)[C@@H](O)[C@]1(C)O [clarithromycin]
group mean, gene SERPING1 (SpotID 46579, MAA and Josa vs. Clari): 0.86
group mean, gene C12orf8 (SpotID 46586, MAA and Josa vs. Clari): 1.22
mean group, FLJ20699 (SpotID 46633, pooled group mean): 0.81
mean group, ARHGAP1 (SpotID 46648, pooled group mean): 0.96
group mean, gene KIAA1172 (SpotID 46679, MAA and Josa vs. Clari): 0.91
mean group, KIAA1172 (SpotID 46679, pooled group mean): 0.92
group mean, gene MKNK2 (SpotID 46825, MAA and Josa vs. Clari): 1.15
mean group, MKNK2 (SpotID 46825, pooled group mean): 1.12
group mean, gene PRKAR1A (SpotID 46838, MAA and Josa vs. Clari): 0.92
group mean, gene ARHGDIA (SpotID 46843, MAA and Josa vs. Clari): 0.91
mean group, ARHGDIA (SpotID 46843, pooled group mean): 0.93
group mean, gene HEXA (SpotID 46882, MAA and Josa vs. Clari): 1.14
group mean, gene CDIPT (SpotID 46896, MAA and Josa vs. Clari): 1.04
mean group, CDIPT (SpotID 46896, pooled group mean): 1.01
mean group, PACE (SpotID 46923, pooled group mean): 1.09
group mean, gene METAP2 (SpotID 46935, MAA and Josa vs. Clari): 0.88
mean group, METAP2 (SpotID 46935, pooled group mean): 0.89
group mean, gene HSPBP1 (SpotID 46979, MAA and Josa vs. Clari): 0.87
mean group, EREG (SpotID 46988, pooled group mean): 0.85
group mean, gene TFPI2 (SpotID 46991, MAA and Josa vs. Clari): 0.57
group mean, gene C2orf3 (SpotID 47034, MAA and Josa vs. Clari): 0.87
mean group, C2orf3 (SpotID 47034, pooled group mean): 0.90
group mean, gene NFRKB (SpotID 47056, MAA and Josa vs. Clari): 0.82
group mean, gene GOLGB1 (SpotID 47111, MAA and Josa vs. Clari): 1.17
group mean, gene MCM2 (SpotID 47123, MAA and Josa vs. Clari): 0.78
group mean, gene KIAA0251 (SpotID 47131, MAA and Josa vs. Clari): 1.07
group mean, gene ARHGAP1 (SpotID 47192, MAA and Josa vs. Clari): 0.94
group mean, gene ITGB5 (SpotID 47212, MAA and Josa vs. Clari): 1.12
mean group, NUBP1 (SpotID 47241, pooled group mean): 0.95
group mean, gene AKR1A1 (SpotID 47249, MAA and Josa vs. Clari): 1.08
group mean, gene HKE4 (SpotID 47251, MAA and Josa vs. Clari): 1.13
mean group, EPOR (SpotID 47314, pooled group mean): 1.14
group mean, gene ADAM11 (SpotID 47352, MAA and Josa vs. Clari): 1.18
mean group, ADAM11 (SpotID 47352, pooled group mean): 1.10
group mean, gene ERF (SpotID 47354, MAA and Josa vs. Clari): 1.00
mean group, P4HB (SpotID 47366, pooled group mean): 1.18
group mean, gene MTHFD1 (SpotID 47406, MAA and Josa vs. Clari): 0.93
mean group, CETN2 (SpotID 47415, pooled group mean): 1.18
group mean, gene SNK (SpotID 47418, MAA and Josa vs. Clari): 0.77
mean group, SNK (SpotID 47418, pooled group mean): 0.82
mean group, GCS1 (SpotID 47432, pooled group mean): 1.02
group mean, gene DCTN1 (SpotID 47439, MAA and Josa vs. Clari): 0.93
mean group, DCTN1 (SpotID 47439, pooled group mean): 0.95
group mean, gene RANBP1 (SpotID 47446, MAA and Josa vs. Clari): 0.83
mean group, RANBP1 (SpotID 47446, pooled group mean): 0.89
mean group, MSH3 (SpotID 47504, pooled group mean): 0.99
mean group, SERPINA1 (SpotID 47522, pooled group mean): 0.95
group mean, gene PTK2B (SpotID 47524, MAA and Josa vs. Clari): 1.08
group mean, gene ARHGDIA (SpotID 47535, MAA and Josa vs. Clari): 0.91
group mean, gene TRAP1 (SpotID 47622, MAA and Josa vs. Clari): 0.89
mean group, TRAP1 (SpotID 47622, pooled group mean): 0.94
group mean, gene HSPA9B (SpotID 47661, MAA and Josa vs. Clari): 0.90
mean group, NR4A2 (SpotID 47679, pooled group mean): 1.14
group mean, gene HSPA9B (SpotID 47694, MAA and Josa vs. Clari): 0.90
mean group, HSPA9B (SpotID 47694, pooled group mean): 0.95
group mean, gene MAD4 (SpotID 47705, MAA and Josa vs. Clari): 1.42
group mean, gene NBS1 (SpotID 47754, MAA and Josa vs. Clari): 0.89
mean group, NBS1 (SpotID 47754, pooled group mean): 0.97
group mean, gene KIAA1922 (SpotID 47755, MAA and Josa vs. Clari): 0.79
group mean, gene POLA (SpotID 47776, MAA and Josa vs. Clari): 0.86
mean group, POLA (SpotID 47776, pooled group mean): 0.89
group mean, gene BET3 (SpotID 47793, MAA and Josa vs. Clari): 1.08
group mean, gene GOT1 (SpotID 47802, MAA and Josa vs. Clari): 0.93
mean group, GOT1 (SpotID 47802, pooled group mean): 0.94
group mean, gene ENTPD6 (SpotID 47811, MAA and Josa vs. Clari): 1.11
mean group, ENTPD6 (SpotID 47811, pooled group mean): 1.06
mean group, SSI-1 (SpotID 47846, pooled group mean): 0.93
group mean, gene PRLR (SpotID 47850, MAA and Josa vs. Clari): 0.99
mean group, PRLR (SpotID 47850, pooled group mean): 0.99
group mean, gene ERF (SpotID 47898, MAA and Josa vs. Clari): 1.01
group mean, gene YWHAE (SpotID 47911, MAA and Josa vs. Clari): 0.95
group mean, gene CCNE2 (SpotID 47926, MAA and Josa vs. Clari): 0.73
group mean, gene P4HA1 (SpotID 47935, MAA and Josa vs. Clari): 1.27
mean group, P4HA1 (SpotID 47935, pooled group mean): 1.18
group mean, gene CTSB (SpotID 47937, MAA and Josa vs. Clari): 1.15
group mean, gene INPP5E (SpotID 47939, MAA and Josa vs. Clari): 0.89
group mean, gene SF3B3 (SpotID 47947, MAA and Josa vs. Clari): 0.93
group mean, gene BCKDK (SpotID 47949, MAA and Josa vs. Clari): 0.94
group mean, gene DNASE1L1 (SpotID 47950, MAA and Josa vs. Clari): 1.06
mean group, DNASE1L1 (SpotID 47950, pooled group mean): 1.03
group mean, gene COX15 (SpotID 47951, MAA and Josa vs. Clari): 0.94
mean group, USF2 (SpotID 47973, pooled group mean): 1.05
group mean, gene THBS1 (SpotID 47987, MAA and Josa vs. Clari): 0.60
mean group, THBS1 (SpotID 47987, pooled group mean): 0.71
mean group, RPN2 (SpotID 47988, pooled group mean): 1.02
group mean, gene PTGER1 (SpotID 47995, MAA and Josa vs. Clari): 0.73
group mean, gene CTSH (SpotID 48000, MAA and Josa vs. Clari): 1.22
mean group, CUTL1 (SpotID 48004, pooled group mean): 1.02
group mean, gene BCL2L2 (SpotID 48006, MAA and Josa vs. Clari): 1.02
mean group, SRF (SpotID 48026, pooled group mean): 1.03
group mean, gene SCN1B (SpotID 48121, MAA and Josa vs. Clari): 1.07
mean group, FRDA (SpotID 48137, pooled group mean): 0.90
group mean, gene SFRS7 (SpotID 48149, MAA and Josa vs. Clari): 0.85
mean group, SFRS7 (SpotID 48149, pooled group mean): 0.88
group mean, gene ZAP3 (SpotID 48160, MAA and Josa vs. Clari): 0.92
mean group, ZAP3 (SpotID 48160, pooled group mean): 0.95
group mean, gene SNAPC1 (SpotID 48182, MAA and Josa vs. Clari): 0.87
group mean, gene OPA1 (SpotID 48192, MAA and Josa vs. Clari): 0.90
group mean, gene BAT8 (SpotID 48214, MAA and Josa vs. Clari): 1.11
group mean, gene MAPK12 (SpotID 48233, MAA and Josa vs. Clari): 1.05
mean group, MAPK12 (SpotID 48233, pooled group mean): 1.03
group mean, gene DAXX (SpotID 48235, MAA and Josa vs. Clari): 0.93
group mean, gene GRB2 (SpotID 48266, MAA and Josa vs. Clari): 1.06
mean group, GRB2 (SpotID 48266, pooled group mean): 1.04
group mean, gene ARHC (SpotID 48280, MAA and Josa vs. Clari): 1.01
group mean, gene GCN5L1 (SpotID 48301, MAA and Josa vs. Clari): 1.02
mean group, GCN5L1 (SpotID 48301, pooled group mean): 1.01
group mean, gene FN1 (SpotID 48328, MAA and Josa vs. Clari): 0.53
group mean, gene DNMT1 (SpotID 48333, MAA and Josa vs. Clari): 0.79
mean group, CCT3 (SpotID 48345, pooled group mean): 1.03
group mean, gene FN1 (SpotID 48348, MAA and Josa vs. Clari): 0.53
group mean, gene CNOT2 (SpotID 48363, MAA and Josa vs. Clari): 0.92
group mean, gene MAPK9 (SpotID 48365, MAA and Josa vs. Clari): 0.92
mean group, MAPK9 (SpotID 48365, pooled group mean): 0.94
group mean, gene CNOT2 (SpotID 48396, MAA and Josa vs. Clari): 0.91
group mean, gene HIF1A (SpotID 48397, MAA and Josa vs. Clari): 0.89
group mean, gene MGEA5 (SpotID 48411, MAA and Josa vs. Clari): 1.19
mean group, MGEA5 (SpotID 48411, pooled group mean): 1.13
group mean, gene SERPINB1 (SpotID 48415, MAA and Josa vs. Clari): 1.32
mean group, SERPINB1 (SpotID 48415, pooled group mean): 1.28
group mean, gene M6PR (SpotID 48451, MAA and Josa vs. Clari): 1.12
group mean, gene DDC (SpotID 48456, MAA and Josa vs. Clari): 0.94
mean group, DDC (SpotID 48456, pooled group mean): 0.97
mean group, BARD1 (SpotID 48461, pooled group mean): 0.86
group mean, gene MCM5 (SpotID 48470, MAA and Josa vs. Clari): 0.68
group mean, gene RBM3 (SpotID 48471, MAA and Josa vs. Clari): 0.87
mean group, SpotID 48486 (SpotID 48486 (gene symbol not given), pooled group mean): 0.94
group mean, gene RPL13A (SpotID 48500, MAA and Josa vs. Clari): 0.90
mean group, RPL13A (SpotID 48500, pooled group mean): 0.92
group mean, gene USP24 (SpotID 48508, MAA and Josa vs. Clari): 0.87
group mean, gene ARAF1 (SpotID 48521, MAA and Josa vs. Clari): 0.95
mean group, ARAF1 (SpotID 48521, pooled group mean): 0.98
group mean, gene APLP2 (SpotID 48530, MAA and Josa vs. Clari): 1.15
mean group, APLP2 (SpotID 48530, pooled group mean): 1.10
mean group, NFE2L1 (SpotID 48557, pooled group mean): 1.06
mean group, XBP1 (SpotID 48620, pooled group mean): 1.10
group mean, gene DIP2 (SpotID 48643, MAA and Josa vs. Clari): 0.87
group mean, gene KIAA0323 (SpotID 48644, MAA and Josa vs. Clari): 1.14
group mean, gene SDCBP (SpotID 48646, MAA and Josa vs. Clari): 1.11
mean group, SDCBP (SpotID 48646, pooled group mean): 1.08
mean group, FECH (SpotID 48654, pooled group mean): 0.98
group mean, gene CHK (SpotID 48672, MAA and Josa vs. Clari): 1.01
group mean, gene HSPBP1 (SpotID 48693, MAA and Josa vs. Clari): 0.87
mean group, HSPBP1 (SpotID 48693, pooled group mean): 0.91
group mean, gene SIGIRR (SpotID 48705, MAA and Josa vs. Clari): 1.12
group mean, gene P4HA1 (SpotID 48707, MAA and Josa vs. Clari): 1.25
mean group, P4HA1 (SpotID 48707, pooled group mean): 1.18
group mean, gene MKNK2 (SpotID 48713, MAA and Josa vs. Clari): 1.22
mean group, PPP3CB (SpotID 48717, pooled group mean): 0.95
group mean, gene IKKE (SpotID 48725, MAA and Josa vs. Clari): 0.97
mean group, IKKE (SpotID 48725, pooled group mean): 0.94
mean group, RALA (SpotID 48732, pooled group mean): 1.06
mean group, MAFB (SpotID 48747, pooled group mean): 0.93
group mean, gene KIAA0217 (SpotID 48804, MAA and Josa vs. Clari): 0.85
mean group, KIAA0217 (SpotID 48804, pooled group mean): 0.88
